From US20050202407A1, “Methods and assays for screening anti-neoplastic therapeutic agents” (Baylor College of Medicine, priority 2003, published 2005)
Each block holds one molecule with its values, some of them ahead of it.

How the values were obtained:
[1] = tested on: ERK1/2; test: Phosphorylated ERK1/2 by Western blot; type: cell-based, human; details: Adcav-1- or AdRSV-infected cells
Description: Unless specifically indicated, immunoprecipitation (IP) was performed as follows. Cells were washed with ice-cold phosphate-buffered saline (PBS), lysed on the plates by incubation for 10 min on ice with IP lysis buffer, which consists of 20 mM Tris-HCl (pH 7.5), 150 mM NaCl, 1 mM EDTA, 1 mM EGTA, 1% Triton X-100, 1 mM β-glycerophosphate, 60 mM octylglucoside and protease inhibitor cocktail. Cells were then scraped off the dish, transferred to microcentrifuge tubes, placed on ice for 20 min, and centrifuged for 10 min at high speed in a microcentrifuge at 4° C. The supernatant (cell lysate) was transferred to a fresh tube and frozen at −80° C. until use. Typically, 500 μg of cell lysate proteins were diluted to 500 μl with IP lysis buffer and precleared by incubation with 3 μg of the corresponding immunoglobulin G (IgG) from […] for 30 min at 4° C. on a rocker, followed by the addition of 50 μl of IP lysis buffer-prewashed protein A or G plus agarose and incubation for another 1 h. The cleared cell lysate was incubated with 3 μg of specific antibody or the corresponding IgG overnight at 4° C. on a rocker. […] For regular Western blot analysis, protein concentration in cell lysates was determined by the Bio-Rad protein assay, and 30 μg of protein from each sample was loaded on the gel. β-Actin served as a loading control.

[2] = tested on: LNCaP cells; test: Viability assay with MEK inhibitors
Description: (§1) Cells were infected or transfected in six-well plates. Forty-eight hours after infection or transfection, cells were treated with 1 μM Tg for the time indicated. At the end of the treatments MTS assays were performed using CellTiter 96 aqueous one solution reagent from Promega by a modified version of the procedure. Briefly 300 μl of MTS solution was added to each well and incubated for 1 h at 37° C. One milliliter of reaction or medium mix was transferred from each well to an Eppendorf tube and then centrifuged in a microcentrifuge for 5 min at 4,000 rpm (˜3,000×g). One hundred microliters of supernatant was transferred to each well of a 96-well plate, and the relative viability was determined by the measurement of absorbance at 490 nm in a 96-well plate reader. […] Apoptotic morphology was analyzed with phase-contrast fluorescence microscopy after incubation with 0.2 μg of 4′6′-dismidino-2-phenylindole (DAPI) per ml. The activities of caspases in the cell lysates were analyzed by Western blotting using specific antibodies recognizing procaspases or cleaved forms of caspases, followed by quantitative intensity analysis using software (GelExpert; Nucleo Vision) and normalized to the intensity of β-actin in the same sample.

[3] = tested on: PDK1; test: PDK1 IP kinase assay; type: cell-based, human; details: 1 μM Tg for 48 h; LNCaP cells
Description: Cell lysates were prepared as described above. PDK1 activity assay was performed according to the manufacturer's protocol (Upstate Biotechnology). Radioactivity that remained on the P81 paper was read with TopCount (Packard).
Protein expression levels and kinase activities of PI3-K, PDK1, and Akt were determined in cav-1-expressing or vector control LNCaP cells before and after treatment with 1 μM Tg for 48 h (+Tg): (A) PI3-K kinase assay by TLC (top gel); (B) PDK1 IP kinase assay; (C) Akt IP kinase assay using recombinant GSK3 as a substrate. Total protein and phosphorylated protein (indicated by P-prefix before protein name) of each kinase were analyzed and presented in each blot. β-Actin served as a loading control. There was no difference in protein expression levels for PI3-K in cav-1-expressing cells to control vector-infected cells (FIG. 2A). Although PI3-K activity was reduced by Tg treatment, no difference was found between cav-1-expressing and control cells (FIG. 2A). Tg treatment also led to reduced PDK1 activity; however, compared with control RSV-infected cells, PDK1 activity was approximately 17% higher in cav-1-expressing cells and approximately 30% higher in Tg-treated cav-1-expressing cells (FIG. 2B). In the same lysates, there was no difference in PDK1 protein expression (FIG. 2B).

[4] = tested on: PI3-K; test: PI3-K activity assay (TLC); type: cell-based, human; details: 1 μM Tg for 48 h; cav-1-expressing and control LNCaP cells
Description: Cell lysates were prepared as described above for the Akt activity assay. PI3-K activity assays were performed as described below. Briefly, 500 μg of cell lysate proteins were immunoprecipitated with monoclonal antibody against phosphotyrosine for 3 h at 4° C. with gentle rocking, and the beads were washed twice with lysis buffer and twice with PI3-K assay buffer (20 mM Tris [pH 7.5], 100 mM NaCl, 0.5 mM EGTA, 20 mM MgCl2). PI was dissolved in chloroform (5 mg/ml) and diluted to 0.5 mg/ml with PI3-K assay buffer, followed by sonication. […] Five microliters of washed chloroform phase from each sample was loaded on a TLC plate and analyzed by ascending chromatography in chloroform-methanol-29.5% ammonium hydroxide-water (90:90:8:19), followed by autoradiography.
Protein expression levels and kinase activities of PI3-K, PDK1, and Akt were determined in cav-1-expressing or vector control LNCaP cells before and after treatment with 1 μM Tg for 48 h (+Tg): (A) PI3-K kinase assay by TLC (top gel); (B) PDK1 IP kinase assay; (C) Akt IP kinase assay using recombinant GSK3 as a substrate. Total protein and phosphorylated protein (indicated by P-prefix before protein name) of each kinase were analyzed and presented in each blot. β-Actin served as a loading control. […]

[5] = Viability assay with MEK inhibitors; details: human
Description: as §1

[6] = target: T1, PP1 (catalytic subunit) (Oryctolagus cuniculus, UniProt P62139); test: In vitro malachite green phosphatase assay with purified cav-1; type: biochemical, rabbit; details: 100 ng purified cav-1, 0.02 U PP1
T1 construct: purchased New England BioLabs
T1 sequence (P62139 whole entry): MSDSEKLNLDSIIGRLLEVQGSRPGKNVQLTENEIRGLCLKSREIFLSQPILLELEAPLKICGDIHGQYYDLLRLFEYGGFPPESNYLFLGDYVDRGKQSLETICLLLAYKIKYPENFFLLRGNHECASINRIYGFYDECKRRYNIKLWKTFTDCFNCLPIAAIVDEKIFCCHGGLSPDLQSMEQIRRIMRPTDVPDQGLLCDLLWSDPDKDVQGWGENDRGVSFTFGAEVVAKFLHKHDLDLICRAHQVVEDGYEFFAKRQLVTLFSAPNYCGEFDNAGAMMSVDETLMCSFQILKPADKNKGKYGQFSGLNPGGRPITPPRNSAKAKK
Description: (§2) PP1 (catalytic subunit) (0.02 U) or PP2A (core enzyme) (0.01 U) was incubated with or without 100 ng of purified cav-1 protein for 1 h at 4° C. Phosphatase assay buffer and a phosphopeptide (K-R-pT-1-R-R) were added to a final volume of 50 μl. Reactions were initialed by the addition of 200 μM phosphopeptide, and reaction mixtures were incubated at room temperature for 10 min. Reactions were terminated by the addition of 100 μl of malachite green solution. Activities of PP1 and PP2A were determined by the measurement of absorbance at 620 nm.
(§3) To determine whether the effects of cav-1 on PP1 and PP2A are direct and whether cav-1 interacts with and inhibits PP1 and PP2A in vitro, in vitro IP experiments were performed using purified His-V5-tagged human cav-1, PP1 (C subunit), and PP2A (core enzyme). […] The results of in vitro phosphatase assays indicate that the addition of cav-1 reduced PP1 and PP2A activities by approximately 30% under these basic conditions (FIG. 3F). Briefly, cells were treated with purified cav-1 (¢) or not treated with purified cav-1 (£) and relative activity was determined by measuring the optical density at 620 nm (OD620).

[7] = target: T2, PP2A (core enzyme) (Homo sapiens, UniProt P67775); test: as above; type: biochemical; details: 100 ng purified cav-1, 0.01 U PP2A
T2 construct: purchased Upstate Biotechnology
T2 sequence (P67775 whole entry): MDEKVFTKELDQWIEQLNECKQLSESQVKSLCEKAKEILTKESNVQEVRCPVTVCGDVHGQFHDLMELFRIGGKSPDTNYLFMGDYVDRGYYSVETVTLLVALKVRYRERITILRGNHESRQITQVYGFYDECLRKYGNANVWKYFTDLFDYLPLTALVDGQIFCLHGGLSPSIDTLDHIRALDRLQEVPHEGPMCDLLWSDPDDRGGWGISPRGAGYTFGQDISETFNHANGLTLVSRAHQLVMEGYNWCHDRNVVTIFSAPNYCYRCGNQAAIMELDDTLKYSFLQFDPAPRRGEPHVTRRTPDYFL
T2 sequence (P30153 2-589 partner limits assumed): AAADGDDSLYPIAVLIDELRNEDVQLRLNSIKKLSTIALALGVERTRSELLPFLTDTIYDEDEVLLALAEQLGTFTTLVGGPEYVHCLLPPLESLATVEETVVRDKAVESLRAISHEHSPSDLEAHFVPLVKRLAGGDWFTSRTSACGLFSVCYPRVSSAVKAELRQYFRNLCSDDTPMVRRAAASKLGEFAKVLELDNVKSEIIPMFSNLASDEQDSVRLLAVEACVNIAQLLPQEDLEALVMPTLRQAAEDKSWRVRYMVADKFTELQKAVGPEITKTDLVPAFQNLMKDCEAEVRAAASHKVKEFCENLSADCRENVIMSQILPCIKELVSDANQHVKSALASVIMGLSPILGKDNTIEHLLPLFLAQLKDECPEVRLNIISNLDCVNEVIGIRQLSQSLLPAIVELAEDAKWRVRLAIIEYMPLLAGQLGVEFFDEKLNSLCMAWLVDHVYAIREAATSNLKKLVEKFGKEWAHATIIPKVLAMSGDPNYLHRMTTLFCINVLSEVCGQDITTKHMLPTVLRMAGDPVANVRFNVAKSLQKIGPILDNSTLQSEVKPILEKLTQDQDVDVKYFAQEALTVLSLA
Description: as §2, §3

Molecule: COc1cccc(-c2cc(=O)c3ccccc3o2)c1N [PD98059]
phosphorylated ERK1/2 [1]: reduction
reduction of cell viability [2]: ~20%

Molecule: C/C=C(/C)C(=O)O[C@H]1C(C)=C2[C@H]([C@@H]1OC(=O)CCCCCCC)[C@@](C)(OC(C)=O)C[C@H](OC(=O)CCC)[C@@]1(O)[C@H]2OC(=O)[C@@]1(C)O [Tg, thapsigargin]
PDK1 activity [3]: reduced
PI3-K activity [4]: reduced

Molecule: N#CC(=C(/N)Sc1ccccc1N)/C(C#N)=C(\N)Sc1ccccc1N [U0126]
phosphorylated ERK1/2 [1]: reduction
cytotoxicity [5]: ~15%

reduction of PP1 activity [6]: approximately 30%
reduction of PP2A activity [7]: approximately 30%
B1: purified cav-1: purified His-V5-tagged human cav-1 protein (protein, UniProt Q03135 2-178, looked up)
Caveolin-1: SGGKYVDSEGHLYTVPIREQGNIYKPNNKAMADELSEKQVYDAHTKEIDLVNRDPKHLNDDVVKIDFEDVIAEPEGTHSFDGIWKASFTTFTVTKYWFYRLLSALFGIPMALIWGIYFAILSFLHIWAVVPCIKSFLIEIQCISRVYSIYVHTVCDPLFEAVGKIFSNVRINLQKEI
modifications: His-V5 tag
notes: purified His-V5-tagged human cav-1 protein
